In patent US12509451B2, “Heteroaryl amide inhibitors of CD38” (NAPA THERAPEUTICS LTD., priority 2020, dated 2025):

Legend:
[1] = molecular target: T1, recombinant mouse CD38 Protein (Mus musculus, UniProt P56528); test: Fluorescence-based NAD+ hydrolase activity assay with mouse recombinant CD38 protein (Assay 5); format: biochemical; conditions: read-out: Assay 5 Arithmetic mean IC50
T1 construct: purchased R&D System
T1 sequence (P56528 1-304): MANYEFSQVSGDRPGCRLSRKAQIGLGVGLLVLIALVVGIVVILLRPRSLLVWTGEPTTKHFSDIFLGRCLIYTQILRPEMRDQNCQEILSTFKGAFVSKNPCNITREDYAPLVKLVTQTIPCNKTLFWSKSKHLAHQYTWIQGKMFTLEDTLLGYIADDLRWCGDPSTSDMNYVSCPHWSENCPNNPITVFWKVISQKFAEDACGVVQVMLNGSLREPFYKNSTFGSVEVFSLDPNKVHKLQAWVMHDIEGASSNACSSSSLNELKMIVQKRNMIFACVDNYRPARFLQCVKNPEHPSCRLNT
Protocol: This protocol was modified from the following references: Muller et al. (1983); Schultz et al. (2018); Matalonga et al. (2017); and de Oliveira et al. (2018), supra.
(§1) NAD+ hydrolase activity of the mouse recombinant CD38 protein treated with test compounds was measured using a fluorescence-based assay. Briefly, recombinant mouse CD38 Protein (R&D System) was resuspended in 44 μl/well of Sucrose-Tris Buffer (Sucrose 0.25 M, Tris pH 7.4 40 mM) and plated in a 96 well black plate (CORNING) at a density of 2.5 ng/well.
(§2) Each test compound was received in a powder state and dissolved in DMSO as a 25 mM stock solution. Each test compound was serially diluted in order to generate a dose-response curve. The dilution series of each test compound in DMSO was prepared at 50 times the concentrations to be assayed. Each test compound was diluted to generate a 5-fold dilution series of 8 concentrations from 20 μM to 0.256 nM in order to assay 8 final concentrations ranging from 400 nM to 25.6 pM. One μl of the 50× concentration compound series was added to each well of the plate containing 2.5 ng of protein in Sucrose-Tris buffer.
Each plate had the following intra plate controls: 3 wells containing cells treated with vehicle only (DMSO), 3 wells of cells treated with the reference compounds 78c at a final concentration of 50 nM and 2 wells containing only Sucrose-Tris buffer (used as a background value).
The reaction was started adding nicotinamide 1,N^6-etheno-adenine dinucleotide (Sigma Aldrich) to reach a final concentration of 80 µM. The samples were excited at 321-15 nm and the emission of fluorescence was measured at 410-20 nm at 37° C. every minute for 1 hr in a Clariostar Microplate® reader (BMG LABTECH). NAD+ hydrolase activity was calculated as the slope of the linear portion of the fluorescence-time curve using the MARS data analysis software (BMG LABTECH). The data were uploaded in the Collaborative Drug Design (CDD) Software and for each compound the IC50 was calculated by the software. Each compound was tested in 3 independent experiments on 3 separate days to establish the reproducibility of the results. For each plate, the z-factor was also calculated as a plate quality using the CDD software.

[2] = molecular target: T1, recombinant mouse CD38 Protein; test: Fluorescence-based NAD+ cyclase activity assay with mouse recombinant CD38 protein (Assay 4); format: biochemical; conditions: read-out: Assay 4 Arithmetic mean IC50
Protocol: This protocol was modified from de Oliveira et al. (2018) supra.
as §1, with “NAD+ cyclase” for “NAD+ hydrolase”, “the […]” for “the mouse”, “a 96-well” for “a 96 well”, “of 32” for “of 2.5”
as §2, with “100” for “20”, “32” for “0.256”, “2 μM” for “400 nM”, “0.64 nM.” for “25.6 pM.”, “125” for “2.5”
Each plate had the following intra plate controls: 3 wells containing cells treated with vehicle only (DMSO), 3 wells of cells treated with the reference compounds 78c at a final concentration of 500 nM and 2 wells containing only Sucrose-Tris buffer (used as a background value).
The reaction was started adding nicotinamide guanine dinucleotide (NGD+) (Sigma Aldrich) to reach a final concentration of 150 µM. The samples were excited at 337-15 nm and the emission of fluorescence was measured at 442-20 nm at 37° C. every minute for 1 hr in a Clariostar® microplate reader (BMG LABTECH). NAD+ cyclase activity was calculated as the slope of the linear portion of the fluorescence-time curve using the MARS data analysis software (BMG LABTECH). The data were uploaded in the Collaborative Drug Design (CDD) Software and for each compound the IC50 was calculated by the software. Each compound was tested in 3 independent experiments on 3 separate days to establish the reproducibility of the results. For each plate, the z-factor was also calculated as a plate quality using the CDD software.

What does the source list for `CC1(Oc2cc(C(=O)Nc3ccnc(C(F)(F)F)c3)nc(-n3ccnc3)n2)COC1` [Compound 41]?
IC50 [1]: 1 to 50 nM; IC50 [2]: 51 to 1000 nM
